Read-outs that look alike come from different tables or passages of the source.
Assays:
Assay in all cases: Test D pre-/postemergence plant response
Type in all cases: in vivo
[1] = test system: lambsquarters (Chenopodium album); details: Chenopodium album; for pest or weed control at 16 g/ha: 16 g ai/ha; for pest or weed control at 31 g/ha: 31 g ai/ha; for pest or weed control at 62 g/ha: 62 g ai/ha; for pest or weed control at 125 g/ha: 125 g ai/ha
Method in brief: (§1)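 Preemergence: seeds in loam/sand blend treated with test chemicals in non-phytotoxic solvent with surfactant; postemergence: plants at 2–18 cm (1- to 4-leaf stage) in peat-based medium sprayed likewise. Greenhouse 13 to 15 days, then visual rating vs controls, 0 (no effect) to 100 (complete control).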

[2] = test system: pigweed (Amaranthus retroflexus); details: Amaranthus retroflexus; for pest or weed control at 16 g/ha: 16 g ai/ha; for pest or weed control at 31 g/ha: 31 g ai/ha; for pest or weed control at 62 g/ha: 62 g ai/ha; for pest or weed control at 125 g/ha: 125 g ai/ha
Method in brief: as §1

[3] = test system: waterhemp (common waterhemp, Amaranthus rudis); details: Amaranthus tuberculatus; for pest or weed control at 16 g/ha: 16 g ai/ha; for pest or weed control at 31 g/ha: 31 g ai/ha; for pest or weed control at 62 g/ha: 62 g ai/ha; for pest or weed control at 125 g/ha: 125 g ai/ha
Method in brief: as §1

[4] = test system: large (Lg) crabgrass (Digitaria sanguinalis); details: Digitaria sanguinalis; for pest or weed control at 16 g/ha: 16 g ai/ha; for pest or weed control at 31 g/ha: 31 g ai/ha; for pest or weed control at 62 g/ha: 62 g ai/ha; for pest or weed control at 125 g/ha: 125 g ai/ha
Method in brief: as §1

[5] = test system: Italian ryegrass (Lolium multiflorum); details: Lolium multiflorum; for pest or weed control at 16 g/ha: 16 g ai/ha; for pest or weed control at 31 g/ha: 31 g ai/ha; for pest or weed control at 62 g/ha: 62 g ai/ha; for pest or weed control at 125 g/ha: 125 g ai/ha
Method in brief: as §1

[6] = test system: corn (Zea mays); details: Zea mays; for Corn plant response rating (crop injury, 0 = no effect, 100 = complete kill) at 62 g/ha: 62 g ai/ha
Method in brief: as §1

[7] = pre-emergence, Preemergence, scale 0 to 100 (0 no effect, 100 complete control), read-out: Plant response rating, Lambsquarters
[8] = pre-emergence, Preemergence, scale 0 to 100 (0 no effect, 100 complete control), read-out: Plant response rating, Pigweed
[9] = pre-emergence, Preemergence, scale 0 to 100 (0 no effect, 100 complete control), read-out: Plant response rating, Waterhemp
[10] = post-emergence, Postemergence, scale 0 to 100, 0 no effect, 100 complete control, read-out: Plant response rating, Crabgrass, Large
[11] = pre-emergence, Preemergence, scale 0 to 100 (0 no effect, 100 complete control), read-out: Plant response rating, Crabgrass, Large
[12] = pre-emergence, Preemergence, scale 0 to 100 (0 no effect, 100 complete control), read-out: Plant response rating, Ryegrass, Italian

FC(F)(F)c1cc(-c2ccccc2Oc2ncc(Cl)cn2)no1 [Compound 200, 5-chloro-2-[2-[5-(trifluoromethyl)-3-isoxazolyl]phenoxy]pyrimidine]
pest or weed control at 16 g/ha ([1]; post-emergence, Postemergence, read-out: Plant response rating (scale 0 to 100), Lambsquarters): 70%
pest or weed control at 31 g/ha ([1]; post-emergence, Postemergence, scale 0 to 100 (0 no effect, 100 complete control), read-out: Lambsquarters plant response rating): 80%
pest or weed control at 62 g/ha ([1]; post-emergence, Postemergence, scale 0 to 100, 0 no effect, 100 complete control, read-out: Lambsquarters plant response rating): 85%
pest or weed control at 125 g/ha ([1]; post-emergence, Postemergence, scale 0 to 100, 0 no effect, 100 complete control, read-out: Plant response rating, Lambsquarters): 98%
pest or weed control at 125 g/ha ([1]; pre-emergence, Preemergence, read-out: Plant response rating (scale 0 to 100), Lambsquarters): 100%
pest or weed control at 16 g/ha [1, 7]: 75%
pest or weed control at 31 g/ha [1, 7]: 98%
pest or weed control at 62 g/ha [1, 7]: 95%
pest or weed control at 16 g/ha ([2]; post-emergence, Postemergence, read-out: Plant response rating (scale 0 to 100), Pigweed): 90%
pest or weed control at 31 g/ha ([2]; post-emergence, Postemergence, scale 0 to 100 (0 no effect, 100 complete control), read-out: Pigweed plant response rating): 85%
pest or weed control at 62 g/ha ([2]; post-emergence, Postemergence, scale 0 to 100, 0 no effect, 100 complete control, read-out: Pigweed plant response rating): 85%
pest or weed control at 125 g/ha ([2]; post-emergence, Postemergence, scale 0 to 100, 0 no effect, 100 complete control, read-out: Plant response rating, Pigweed): 98%
pest or weed control at 125 g/ha ([2]; pre-emergence, Preemergence, read-out: Plant response rating (scale 0 to 100), Pigweed): 100%
pest or weed control at 16 g/ha [2, 8]: 100%
pest or weed control at 31 g/ha [2, 8]: 100%
pest or weed control at 62 g/ha [2, 8]: 100%
pest or weed control at 16 g/ha ([3]; post-emergence, Postemergence, read-out: Plant response rating (scale 0 to 100), Waterhemp): 80%
pest or weed control at 31 g/ha ([3]; post-emergence, Postemergence, scale 0 to 100 (0 no effect, 100 complete control), read-out: Waterhemp plant response rating): 90%
pest or weed control at 62 g/ha ([3]; post-emergence, Postemergence, scale 0 to 100, 0 no effect, 100 complete control, read-out: Waterhemp plant response rating): 98%
pest or weed control at 125 g/ha ([3]; post-emergence, Postemergence, scale 0 to 100, 0 no effect, 100 complete control, read-out: Plant response rating, Waterhemp): 100%
pest or weed control at 125 g/ha ([3]; pre-emergence, Preemergence, read-out: Plant response rating (scale 0 to 100), Waterhemp): 100%
pest or weed control at 16 g/ha [3, 9]: 98%
pest or weed control at 31 g/ha [3, 9]: 100%
pest or weed control at 62 g/ha [3, 9]: 100%
pest or weed control at 16 g/ha ([4]; post-emergence, Postemergence, read-out: Plant response rating (scale 0 to 100), Crabgrass, Large): 10%
pest or weed control at 31 g/ha ([4]; post-emergence, Postemergence, scale 0 to 100 (0 no effect, 100 complete control), read-out: Crabgrass, Large plant response rating): 10%
pest or weed control at 62 g/ha [4, 10]: 25%
pest or weed control at 125 g/ha [4, 10]: 35%
pest or weed control at 125 g/ha ([4]; pre-emergence, Preemergence, read-out: Plant response rating (scale 0 to 100), Crabgrass, Large): 100%
pest or weed control at 16 g/ha [4, 11]: 98%
pest or weed control at 31 g/ha [4, 11]: 100%
pest or weed control at 62 g/ha [4, 11]: 100%
pest or weed control at 16 g/ha ([5]; post-emergence, Postemergence, read-out: Plant response rating (scale 0 to 100), Ryegrass, Italian): 20%
pest or weed control at 31 g/ha ([5]; post-emergence, Postemergence, scale 0 to 100 (0 no effect, 100 complete control), read-out: Ryegrass, Italian plant response rating): 25%
pest or weed control at 62 g/ha ([5]; post-emergence, Postemergence, scale 0 to 100, 0 no effect, 100 complete control, read-out: Ryegrass, Italian plant response rating): 35%
pest or weed control at 125 g/ha ([5]; post-emergence, Postemergence, scale 0 to 100, 0 no effect, 100 complete control, read-out: Plant response rating, Ryegrass, Italian): 35%
pest or weed control at 125 g/ha ([5]; pre-emergence, Preemergence, read-out: Plant response rating (scale 0 to 100), Ryegrass, Italian): 90%
pest or weed control at 16 g/ha [5, 12]: 30%
pest or weed control at 31 g/ha [5, 12]: 80%
pest or weed control at 62 g/ha [5, 12]: 85%
plant injury at 16 g/ha ([6]; post-emergence, Postemergence, 16 g ai/ha, read-out: Plant response rating (scale 0 to 100), Corn): 5%
plant injury at 31 g/ha ([6]; post-emergence, Postemergence, 31 g ai/ha, scale 0 to 100 (0 no effect, 100 complete control), read-out: Corn plant response rating): 5%
Corn plant response rating (crop injury, 0 = no effect, 100 = complete kill) at 62 g/ha ([6]; post-emergence, Postemergence, scale 0 to 100, 0 no effect, 100 complete control): 10%
Corn plant response rating (crop injury, 0 = no effect, 100 = complete kill) at 125 g/ha ([6]; post-emergence, Postemergence, 125 g ai/ha, scale 0 to 100, 0 no effect, 100 complete control): 15%
plant injury at 125 g/ha ([6]; pre-emergence, Preemergence, 125 g ai/ha, read-out: Plant response rating (scale 0 to 100), Corn): 20%
Corn plant response rating (crop injury, 0 = no effect, 100 = complete kill) at 16 g/ha ([6]; pre-emergence, Preemergence, 16 g ai/ha, scale 0 to 100 (0 no effect, 100 complete control)): 0%
Corn plant response rating (crop injury, 0 = no effect, 100 = complete kill) at 31 g/ha ([6]; pre-emergence, Preemergence, 31 g ai/ha, scale 0 to 100 (0 no effect, 100 complete control)): 0%
Corn plant response rating (crop injury, 0 = no effect, 100 = complete kill) at 62 g/ha ([6]; pre-emergence, Preemergence, scale 0 to 100 (0 no effect, 100 complete control)): 10%

— patent US10131652B2, “Pyrimidinyloxy benzene derivatives as herbicides” (E. I. DU PONT DE NEMOURS AND COMPANY, priority 2014, dated 2018)
